# ± gives the standard deviation of the reports.
row,SMILES,glass transition temperature [°C]
1,*C(=O)Nc1ccc(Oc2ccc(-c3ccc(Oc4ccc(NC(=O)c5ccc6c(c5)C(=O)N(c5cccc(N7C(=O)c8ccc(*)cc8C7=O)c5)C6=O)cc4)cc3)cc2)cc1 (repeat unit),292.00
2,*C(=O)c1ccc2c(c1)C(=O)N(c1cccc(C(O)c3cccc(N4C(=O)c5ccc(*)cc5C4=O)c3)c1)C2=O (repeat unit),292.00
3,*c1ccc(Oc2ccc(-c3cccc4c3C(=O)N(Oc3ccc(C(=O)c5ccc(Oc6cccc7c6C(=O)N(*)C7=O)cc5)cc3)C4=O)cc2)cc1 (repeat unit),252.00
4,*Oc1ccc(Oc2ccc(C(=O)c3ccc(*)cc3)cc2)cc1C(C)(C)C (repeat unit),177.00
5,*CCN(*)C(=O)CC (repeat unit),60.00
6,*C(=O)OCCN(CCOC(=O)c1ccc2c(c1)C(=O)N(c1c(C)cc(Cc3cc(C)c(N4C(=O)c5ccc(*)cc5C4=O)c(C)c3)cc1C)C2=O)c1ccccc1 (repeat unit),177.00
7,*c1ccc(C(=O)c2ccc(Oc3ccc(-c4nn(*)c(=O)c5ccccc45)c(F)c3)cc2)cc1 (repeat unit),253.00
8,*c1c(C)cc(C(c2cc(C(F)(F)F)cc(C(F)(F)F)c2)c2cc(C)c(N3C(=O)c4ccc(Oc5ccc6c(c5)C(=O)N(*)C6=O)cc4C3=O)c(C)c2)cc1C (repeat unit),281.90
9,*Oc1c(C)cc(C2(c3cc(C)c(Oc4ccc(C(=O)c5ccc(*)cc5)cc4)c(C)c3)CCC3CCCCC3C2)cc1C (repeat unit),251.00
10,*c1cc(C(c2ccc(OCCN(CC)c3ccc(/C=C/C4=CC(=C(C#N)C#N)CC(C)(C)C4)cc3)c(N3C(=O)c4ccc(Oc5ccc6c(c5)C(=O)N(*)C6=O)cc4C3=O)c2)(C(F)(F)F)C(F)(F)F)ccc1OCCN(CC)c1ccc(/C=C/C2=CC(=C(C#N)C#N)CC(C)(C)C2)cc1 (repeat unit),202.00
11,*c1ccc(C2(c3ccc(N4C(=O)c5ccc(Oc6ccc7c(c6)C(=O)N(*)C7=O)cc5C4=O)cc3)c3ccccc3-c3ccccc32)cc1 (repeat unit),373.00
12,*C(=O)c1cc(C(=O)c2ccc3c(c2)C(=O)N(c2ccc(Oc4ccc(N5C(=O)c6ccc(*)cc6C5=O)cc4)cc2)C3=O)cc(C(C)(C)C)c1 (repeat unit),252.50
13,*C(=O)Nc1ccc(C2(c3ccc(NC(=O)c4ccc5c(c4)C(=O)N(c4ccc(Oc6ccc(N7C(=O)c8ccc(*)cc8C7=O)cc6)cc4)C5=O)cc3)c3ccccc3-c3ccccc32)cc1 (repeat unit),240.00
14,*CC(COc1ccc(-c2ccc(C#N)cc2)cc1)O* (repeat unit),94.2
15,*c1ccc(Oc2ccc(C(c3ccc(Oc4ccc(N5C(=O)c6ccc7c8c(ccc(c68)C5=O)C(=O)N(*)C7=O)cc4)cc3)(C(F)(F)F)C(F)(F)F)cc2)cc1 (repeat unit),280.00
16,*CC(*)OC(=O)c1ccc(C(C)C)cc1 (repeat unit),67.70
17,*c1cccc(-c2nc3ccc(-c4ccc5nc(*)sc5c4)cc3s2)c1 (repeat unit),495.00
18,*Sc1cccc(Sc2ccc(Sc3ccc(*)cc3)cc2)c1 (repeat unit),69.00
19,*Oc1ccc(C(C)(C)c2ccc(C(C)(C)c3ccc(OC(*)=O)cc3)cc2)cc1 (repeat unit),154.00
20,*c1ccc(-c2ccc(-c3ccc4nc(Oc5cc(-c6ccccc6)c6cc(*)ccc6n5)cc(-c5ccccc5)c4c3)cc2)cc1 (repeat unit),308.00
21,*c1ccc(Oc2ccc(-c3nc4cc(-c5ccc6nc(*)c(-c7ccccc7)nc6c5)ccc4nc3-c3ccccc3)cc2)cc1 (repeat unit),292.50
22,*CC(*)C(=O)OCC(C)C (repeat unit) [Poly(isobutyl acrylate) ],-24 ± 30
23,*Oc1ccc(C2(c3ccc(Oc4ccc(C(=O)c5ccccc5)c(-c5cc(*)ccc5C(=O)c5ccccc5)c4)cc3)c3ccccc3-c3ccccc32)cc1 (repeat unit),215.00
24,*c1ccc(-c2nc3ccc(-c4ccc5nc(*)c(-c6ccccc6)c(-c6ccccc6)c5c4)cc3c(-c3ccccc3)c2-c2ccccc2)cc1 (repeat unit),400.00
25,*c1ccc2c(c1)C(=O)N(c1cccc(S(=O)(=O)c3cccc(N4C(=O)c5ccc(C(*)(C(F)(F)F)C(F)(F)F)cc5C4=O)c3)c1)C2=O (repeat unit),275.00 ± 5.7
26,*Oc1ccc(/C=C/C(=O)c2ccc(Oc3ccc(C(C)(C)c4ccc(*)c(C)c4)cc3C)cc2)cc1 (repeat unit),157.00
27,*c1ccc(Oc2ccc(C(=O)c3ccc(C(=O)c4ccc(C(=O)c5ccc(Oc6ccc(-c7nc(-c8ccccc8)[nH]c7*)cc6)cc5)cc4)cc3)cc2)cc1 (repeat unit),239.00
28,*CC(CC)(CO*)COC(=O)C(=C)C (repeat unit),40.00
29,*Oc1ccc(P(=O)(c2ccccc2)c2ccc(Oc3ccc(C(c4ccc(*)cc4)(C(F)(F)F)C(F)(F)F)cc3)cc2)cc1 (repeat unit),210.50

# Other lines, results leading:
row,glass transition temperature [°C],SMILES
1,50.00,*CCCCCCCCNC(=O)CCCCC(=O)N* (repeat unit)
2,52.00,*c1ccc(OCCCCCCCCCCCOC(=O)CCCCCCCCC(=O)OCCCCCCCCCCCOc2ccc(-c3nnc(*)s3)cc2)cc1 (repeat unit)
3,181.00,*Oc1ccc(OC(=O)c2ccc(C(*)=O)cc2Sc2ccccc2)cc1 (repeat unit)
4,206.00,*Nc1cc([N+](=O)[O-])c(NC(=O)CCCCC(*)=O)cc1/C=C/c1ccc(N(C)C)cc1 (repeat unit)
5,151.00,*CCCCCOc1ccc(-c2ccc(O*)c3ccccc23)c2ccccc12 (repeat unit)
6,113.00,*CC(c1ccccc1)C1C(=O)N(CCCCNC(=O)C(F)(F)C(F)(F)C(F)(F)C(F)(F)C(F)(F)C(F)(F)C(F)(F)F)C(=O)C1* (repeat unit)
7,105.00,*CC(=O)OC(=O)COc1ccc(C(C)(C)c2ccc(O*)cc2)cc1 (repeat unit)
8,18.00,*CC(*)c1ccc(COCCC(F)(F)C(F)(F)C(F)(F)C(F)(F)C(F)(F)C(F)(F)F)cc1 (repeat unit)
9,234.20,*Nc1ccc(NC(=O)c2cc(-c3ccc(C(=O)OC)c(C(*)=O)c3)ccc2C(=O)OC)cc1 (repeat unit)
10,65.00,*/C=C/c1cc(OCCCC)c(*)cc1OC (repeat unit)
11,159.00,*Nc1cc(NC(=O)CCCCC(*)=O)cc(-c2nnc(-c3ccccn3)o2)c1 (repeat unit)
12,265.00,*Nc1cccc(NC(=O)CCCCCCCCC(=O)Nc2ccc(C(=O)NC(*)=S)cc2)c1 (repeat unit)
13,244.00,*Oc1ccc(NC(=O)c2cc(C(=O)Nc3ccc(Oc4ccc(C(C)(C)c5ccc(*)cc5)cc4)cc3)cc(C(C)(C)C)c2)cc1 (repeat unit)
14,264.00,*CC(=O)Nc1cccc2c(NC(=O)COc3ccc4ccccc4c3Sc3c(O*)ccc4ccccc34)cccc12 (repeat unit)
15,45.00,*CNC(=O)OC(c1ccco1)C(OC(=O)NCc1ccc(C(C)(C)c2ccc(*)o2)o1)c1ccco1 (repeat unit)
16,138.00,*Cc1ccc(C(C)(C)c2ccc(Cn3c(=O)c4cc5c(=O)n(*)c(=O)c5cc4c3=O)o2)o1 (repeat unit)

row,glass transition temperature [°C],SMILES
1,8.00,*CCOC(=O)CCCCC(=O)OCCOC(=O)c1ccc(C(=O)O*)cc1 (repeat unit)
2,176.50,*Oc1cccc(Oc2ccc(NC(=O)c3ccc(Oc4cccc(Oc5ccc(C(=O)Nc6ccc(*)cc6)cc5)c4)cc3)cc2)c1 (repeat unit)
3,357.00,*C(=O)Nc1ccc(S(=O)(=O)c2ccc(NC(=O)c3ccc4c(c3)C(=O)N(c3cc(-c5nc6ccccc6s5)cc(N5C(=O)c6ccc(*)cc6C5=O)c3)C4=O)cc2)cc1 (repeat unit)
4,137.50,*Oc1cccc(Oc2cccc(NC(=O)c3cccc(Oc4cccc(Oc5cccc(C(=O)Nc6cccc(*)c6)c5)c4)c3)c2)c1 (repeat unit)
5,263.00,*C(=O)Nc1cccc(NC(=O)c2ccc3c(c2)C(=O)N(c2ccc(Oc4cccc5c(Oc6ccc(N7C(=O)c8ccc(*)cc8C7=O)cc6)cccc45)cc2)C3=O)c1 (repeat unit)
6,82.00,*CCCC(C)(C)CNC(=O)CCCC(=O)N* (repeat unit)
7,31.00,*CC(*)(C)C(=O)OCCCCCCCCCCOc1ccc(OC(=O)c2ccc(OCCCC)cc2)cc1 (repeat unit)
8,126.00,*CC(*)(C)C(=O)OCCN(CC)c1ccc(/N=N/c2ccc([N+](=O)[O-])cc2)cc1 (repeat unit)
9,149.00,*CC(c1ccccc1)C1C(=O)N(CCCN(CC)c2ccc(/N=N/c3ccc([N+](=O)[O-])cc3Cl)c(C)c2)C(=O)C1* (repeat unit)
10,212.00,*c1ccc(C(=O)Oc2c(C)cc(C(c3cccnc3)c3cc(C)c(OC(=O)c4ccc(N5C(=O)CC(Nc6ccc(NC7CC(=O)N(*)C7=O)cc6)C5=O)cc4)c(C)c3)cc2C)cc1 (repeat unit)
11,-15.50,*CC(CCCCCC)C(CCCCCC)COC(=O)c1ccc(C(=O)O*)cc1 (repeat unit)
12,212.00,*Oc1cccc2ccc(Oc3ccc(NC(=O)c4ccc(Oc5ccc(C(C)(c6ccccc6)c6ccc(Oc7ccc(C(=O)Nc8ccc(*)cc8)cc7)cc6)cc5)cc4)cc3)cc12 (repeat unit)
13,239.00,*c1ccc(/C=C(\C#N)C(=O)NC2CCCCC2NC(=O)/C(C#N)=C/c2ccc(N(c3ccccc3)c3ccc(N(*)c4ccccc4)cc3)cc2)cc1 (repeat unit)
14,278.00,*Nc1cccc(NC(=C(C#N)C#N)c2cccc(C(*)=C(C#N)C#N)c2)c1 (repeat unit)
15,150.00,*CCCC(CCNC(=O)c1ccc(C(=O)N*)cc1)C(C)C (repeat unit)
16,65.00,*CC(*)(C)C(=O)Nc1cccc(-c2nnc(-c3ccccc3)o2)c1 (repeat unit)

# Source: the PolyMetriX glass transition set
